# Source: ChEMBL document CHEMBL4190324 (Eur J Med Chem, 2017)
# Legend:
# HEK293 [1] = assay: Cytotoxicity against HEK293 cells at > 50 uM after 24 hrs by MTT assay; type: cell-based; settings: human, hek293, 24 h
# Acetylcholinesterase = Acetylcholinesterase (Electrophorus electricus, UniProt O42275); assay: Inhibition of electric eel AChE using acetylthiocholine as substrate preincubated for 20 mins followed by substrate addition measured every 2 mins for 20 mins by Ellman's method
# [2] = Hepatotoxicity against human HepG2 cells assessed as reduction in cell viability at 50 uM after 24 hrs by MTT assay; type: toxicity, cell-based; settings: hepg2, 24 h
# Cholinesterase = Cholinesterase (Equus caballus, UniProt P81908)
# Sequence of Cholinesterase (P81908 whole entry): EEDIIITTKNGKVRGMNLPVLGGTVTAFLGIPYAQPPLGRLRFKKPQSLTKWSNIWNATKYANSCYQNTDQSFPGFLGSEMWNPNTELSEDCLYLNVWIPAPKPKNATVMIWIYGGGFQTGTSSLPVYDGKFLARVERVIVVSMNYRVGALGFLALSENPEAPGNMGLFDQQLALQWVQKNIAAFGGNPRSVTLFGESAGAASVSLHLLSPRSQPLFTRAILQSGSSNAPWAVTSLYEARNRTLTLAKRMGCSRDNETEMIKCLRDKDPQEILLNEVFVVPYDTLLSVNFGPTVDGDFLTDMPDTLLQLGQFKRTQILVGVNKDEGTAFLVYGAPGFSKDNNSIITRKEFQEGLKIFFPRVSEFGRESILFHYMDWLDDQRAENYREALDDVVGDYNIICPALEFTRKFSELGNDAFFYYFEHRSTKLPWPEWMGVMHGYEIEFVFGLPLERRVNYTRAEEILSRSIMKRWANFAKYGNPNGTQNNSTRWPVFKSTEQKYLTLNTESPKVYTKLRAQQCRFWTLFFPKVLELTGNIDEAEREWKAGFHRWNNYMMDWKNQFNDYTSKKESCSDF
# Description: Inhibition of equine serum BChE using butyrylthiocholine as substrate preincubated for 20 mins followed by substrate addition measured every 2 mins for 20 mins by Ellman's method
# [3] = Cytotoxicity against HEK293 cells assessed as cell viability up to 100 uM after 24 hrs by MTT assay relative to control; type: cell-based; settings: human, read-out: Activity
# [4] = Hepatotoxicity against human HepG2 cells assessed as reduction in cell viability at 10 to 300 uM after 72 hrs by MTT assay; type: toxicity, cell-based; settings: hepg2, 72 h
# HEK293 [5] = assay: Cytotoxicity against HEK293 cells at 0.1 to 300 uM after 24 hrs by MTT assay; type: cell-based; settings: human, hek293, 24 h
# [6] = Hepatotoxicity against human HepG2 cells assessed as reduction in cell viability at 300 uM after 24 hrs by MTT assay; type: toxicity, cell-based; settings: hepg2, 24 h
# Sequence of Acetylcholinesterase (O42275 whole entry): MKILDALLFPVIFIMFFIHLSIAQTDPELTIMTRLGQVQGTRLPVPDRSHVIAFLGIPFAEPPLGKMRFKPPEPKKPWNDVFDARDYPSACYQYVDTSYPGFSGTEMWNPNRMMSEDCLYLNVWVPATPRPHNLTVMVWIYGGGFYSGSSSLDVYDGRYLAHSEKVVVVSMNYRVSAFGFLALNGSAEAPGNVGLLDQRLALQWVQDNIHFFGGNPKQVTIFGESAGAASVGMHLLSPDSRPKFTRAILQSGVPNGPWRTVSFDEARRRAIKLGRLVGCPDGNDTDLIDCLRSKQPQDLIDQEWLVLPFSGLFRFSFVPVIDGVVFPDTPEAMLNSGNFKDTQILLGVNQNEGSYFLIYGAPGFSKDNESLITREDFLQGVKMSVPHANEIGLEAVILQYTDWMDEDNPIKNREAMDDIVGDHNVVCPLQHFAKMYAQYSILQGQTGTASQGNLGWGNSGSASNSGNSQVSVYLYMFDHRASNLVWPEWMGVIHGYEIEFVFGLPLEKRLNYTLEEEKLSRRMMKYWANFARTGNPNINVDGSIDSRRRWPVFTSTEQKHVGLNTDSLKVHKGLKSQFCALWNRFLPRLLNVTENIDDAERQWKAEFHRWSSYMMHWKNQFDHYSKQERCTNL
Structure (SMILES),Activity (HEK293 [1]),IC50 (Acetylcholinesterase),Activity [2],IC50 (Cholinesterase),viability at 24 h [3],Activity [4],Activity (HEK293 [5]),Activity [6]
Nc1c2c(nc3cc(Br)ccc13)CCC(C(=O)NCCCc1ccccc1)C2 (configuration not stated),Toxic,0.00714 µM,Toxic,5.11 µM,,,,
Nc1c2c(nc3ccccc13)CCC(C(=O)NCCCc1ccccc1)C2 (configuration not stated),Toxic,0.00517 µM,Toxic,3.68 µM,,,,
Nc1c2c(nc3ccccc13)CCC(C(=O)NCc1ccccc1)C2 (configuration not stated),,0.0372 µM,,10.8 µM,,,,
Nc1c2c(nc3ccccc13)CCC(C(=O)NCCc1ccccc1)C2 (configuration not stated),Toxic,0.0168 µM,Toxic,4.05 µM,,,,
Cn1cc(-c2ccc3c(N)c4c(nc3c2)CCC(C(=O)NCc2ccccc2)C4)cn1 (configuration not stated),,0.191 µM,,2.26 µM,,,,
Nc1c2c(nc3cc(Br)ccc13)CCC(C(=O)NCCc1ccccc1)C2 (configuration not stated),Toxic,0.0241 µM,Toxic,7.17 µM,,,,
Cn1cc(-c2ccc3c(N)c4c(nc3c2)CCC(C(=O)NCCc2ccccc2)C4)cn1 (configuration not stated),Toxic,0.189 µM,,10.6 µM,,,,
Cn1nccc1NC(=O)C1CCc2nc3cc(Br)ccc3c(N)c2C1 (configuration not stated),,0.0177 µM,,20.9 µM,> 80%,,,
Nc1c2c(nc3cc(Br)ccc13)CCC(C(=O)NCc1ccccc1)C2 (configuration not stated),Toxic,0.0337 µM,,10.2 µM,> 80%,,,
Nc1c2c(nc3cc(-c4cncnc4)ccc13)CCC(C(=O)NCCCc1ccccc1)C2 (configuration not stated),Toxic,0.0408 µM,,18 µM,,,,
NNC(=O)C1CCc2nc3ccccc3c(N)c2C1 (configuration not stated),,0.013 µM,,,,Non-Toxic,Non-Toxic,Non-Toxic
CNC(=O)C1CCc2nc3cc(Br)ccc3c(N)c2C1 (configuration not stated),,0.0286 µM,Toxic,,> 80%,,,
Cn1cc(-c2ccc3c(N)c4c(nc3c2)CCC(C(=O)NCCCc2ccccc2)C4)cn1 (configuration not stated),,0.0576 µM,,2.77 µM,,,,
